The target in data set [1] is T1, BTK (Homo sapiens, UniProt Q06187).
T1 construct: endogenous in cells; host or cells: Mino cells
In words: BTK degradation activity test in Mino cells. It is filed as cell-based. The settings on record: 16 h incubation, Western blot or Elisa. The essentials: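 DC50 derived by curve fitting of BTK degradation rates versus untreated control across compound concentrations. Mino cells were exposed for 16 h; BTK levels in lysates, normalised via BCA protein, measured by Western blot or ELISA.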

Data set [2] deals with T2, BTK-C481S (Homo sapiens, UniProt Q06187, C481S).
T2 construct: expressed in transfected cells; host or cells: HEK293 OE BTK-C481S (overexpressing) cell line
T2 sequence (Q06187 whole entry C481S): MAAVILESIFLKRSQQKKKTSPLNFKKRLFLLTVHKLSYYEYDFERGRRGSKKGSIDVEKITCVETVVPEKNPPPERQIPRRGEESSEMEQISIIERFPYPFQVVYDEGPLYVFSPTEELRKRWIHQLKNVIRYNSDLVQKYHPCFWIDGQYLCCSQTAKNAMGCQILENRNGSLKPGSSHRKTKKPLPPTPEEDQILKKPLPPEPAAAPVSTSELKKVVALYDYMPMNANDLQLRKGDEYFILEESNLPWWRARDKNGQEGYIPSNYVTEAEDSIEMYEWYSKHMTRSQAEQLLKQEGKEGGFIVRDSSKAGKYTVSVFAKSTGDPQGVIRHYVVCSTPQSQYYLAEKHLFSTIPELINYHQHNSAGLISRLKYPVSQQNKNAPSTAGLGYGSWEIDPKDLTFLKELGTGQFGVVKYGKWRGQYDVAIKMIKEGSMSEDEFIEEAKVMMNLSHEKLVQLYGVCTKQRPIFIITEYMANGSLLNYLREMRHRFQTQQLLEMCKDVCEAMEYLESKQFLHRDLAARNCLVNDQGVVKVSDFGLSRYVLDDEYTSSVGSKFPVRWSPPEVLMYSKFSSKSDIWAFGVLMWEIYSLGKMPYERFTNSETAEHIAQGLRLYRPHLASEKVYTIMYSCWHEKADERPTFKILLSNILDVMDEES
Put plainly: BTK-C481S degradation activity test in HEK293 OE BTK-C481S cells. The settings on record: 24 h incubation, Western blot or Elisa. It is filed as cell-based. The protocol: HEK293 OE BTK-C481S cell line cells were seeded at 500,000 to 1,000,000 cells/well in a 6-well plate. The compounds were diluted to different concentrations and added to the plate, and after 24 h of incubation, the cells were harvested. After lysing the cells, the total protein concentration in each well was determined using the BCA method. The amount of BTK-C481S was determined using Western blot or Elisa method. The amount of undegraded BTKC481S protein at each drug concentration was compared with the amount of BTKC481S protein in the blank control group to calculate the degradation rate. The degradation curve was drawn based on the degradation rate at each concentration, and the half degradation concentration (DC50) was calculated by fitting.

The test system of data set [3] is OCI-LY10 cells. In words: Inhibitory activity on OCI-LY10 cell proliferation (MTS). The class given is cell-based. The note with it: Homo sapiens, 72 h. The essentials:
(§1)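 Cells seeded at 10000/well, treated with compounds from 1000 nM (4-fold, 8 points) for 72 h (OCI-LY10) or 168 h (Mino) at 37° C. MTS added for 2 h, stopped with SDS, absorbance read at 490 and 650 nm; IC50 from dose-response fit.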

In data set [4] the test system is Mino cells. In words: Inhibitory activity on Mino cell proliferation (MTS). It is filed as cell-based. The note with it: Homo sapiens, 168 h incubation. The essentials: as §1
The nature of data set [5]: Mouse absorption test (pharmacokinetic properties in mice). It is filed as in vivo. The settings on record: intragastric, 30 mg/kg; for DNAUC: DNAUC = AUC/Dose; for Cmax: mouse, plasma, po. How it is done: […] The blood collection time points for intragastric administration were 0.25, 0.5, 1, 2, 4, 6, 8, and 24 h. 0.5 mL of blood was taken with a capillary tube from the orbit, and placed in an EP tube containing EDTA anticoagulant. The EP tube was shaken gently for mixing uniformly, and centrifuged at 3500 rpm and 4° C. for 10 min. The supernatant, i.e., plasma, was taken. Analysis was performed using LC-MS/MS.

Data set [6] concerns OCL-LY10 transplanted tumors. In words: Chronic efficacy test, OCL-LY10 subcutaneous transplanted tumor model. The class given is in vivo. The note with it: NOD/SCID mice, intragastric 10 mg/kg, 3 weeks. How it is done:
NOD/SCID mice were subcutaneously inoculated with OCL-LY10 cells to establish a tumor model. When the tumors grew to about 100 mm^3, the mice were administered with drugs in groups. The mode of administration was as follows: the test compound was administered intragastrically at 10 mg/kg; The changes in body weight and tumor size of the mice were measured twice per week. After 3 weeks, the mice were sacrificed by cervical dislocation, and the efficacy of the compounds on transplanted tumors in OCL-LY10 mice was examined.

Data set [7] in a line: Stability of compounds in human liver microsome. It is filed as in vitro ADME. The note with it: human liver microsomes, NADPH, 37° C., sampling 0-120 min; read-out: Human liver microsome T1/2. The essentials: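 Compound incubated at 37° C with human liver microsomes (1 mg in 1 mL PBS) plus NADPH. Samples taken at 0, 15, 30, 60 and 120 min, quenched into internal standard solution and analysed by LC/MS; metabolism calculated from peak area.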
(Liver microsomes are vesicles of endoplasmic reticulum, rich in cytochrome P450 enzymes.)

For data set [8], the system named is B cell activation. In words: Test of inhibition of B cell activation in PBMC (Anti-Human IgM stimulation, flow cytometry). It is filed as cell-based. The note with it: Anti-Human IgM 50 μg/mL, 18 h. How it is done: The PBMC cell cryopreservation liquid was resuspended in 1640 complete culture medium to an appropriate concentration, and inoculated into a 96-well round-bottom plate at 15×10^4 cells/90 μL/well, and the culture plate was placed in a CO2 incubator for incubation.
The compounds to be tested were formulated into 10 mM stock solutions which were then fold-serially diluted with DMSO, and then diluted with 1640 complete culture liquid to make the concentration 100 times of the final concentration. The compound diluent was added into the cell solution in each well at 1 μL/well and shaken gently. 2 duplicate wells were set up for each concentration. The dosed cell plate was placed in a 37° C. incubator with 5% carbon dioxide and incubated for 1 h.
3. The dosed cell culture plate was taken and 10 μL of Anti-Human IgM-UNLB was added into the well corresponding to the compound to be tested; in 2 groups of cell blank wells, only 10 μL of Anti-Human IgM-UNLB was added; and in 3 groups of cell blank wells, no reagents and antibodies were added. The final concentration of Anti-Human IgM-UNLB was 50 μg/mL.
4. The loaded cell culture plate was placed in a 37° C. incubator with 5% carbon dioxide and incubated for 18 h. Total system: 90 μL PBMC+1 μL compound+10 μL Anti-Human IgM-UNLB
5. Samples were collected and stained, and the cells were analyzed using flow cytometry to obtain data. (When analyzed using flow cytometry, lymphocytes were gated).
(In general: Flow cytometry measures light scatter and fluorescence of single cells or particles in a stream.)

Data set [9] is described as follows: Beagle dog absorption test (PK in dogs). It is filed as in vivo. The settings on record: plasma, po, intragastric, 10 mg/kg. The protocol:
Beagle dogs were used as experimental animals, and drugs were administered intragastrically at 10 mg/kg. The blood collection time points for intragastric administration were 0, 0.25, 0.5, 1, 2, 4, 6, 8, 10, 12, and 24 h. 1.0 mL of blood was collected from the jugular vein, placed in an EDTAK2 centrifuge tube, and placed on an ice bath, centrifuged at 5000 rpm and 4° C. for 10 min to obtain the supernatant, i.e., plasma. 0.1 ml of the plasma was taken for analysis by LC-MS/MS.

Some results are limits rather than exact numbers.

For orientation: DC50 means the concentration giving 50% degradation. Read a high DC50 as degradation only at high concentration. For orientation: IC50 means the midpoint of a concentration-inhibition curve. The low end stands for inhibition by little substance, the high end for a need for much substance. One may read the Cmax as the maximum level reached in the sampled fluid or tissue. The AUC is concentration integrated over time. Low values mean low exposure, high ones high exposure.

T1 sequence (Q06187 whole entry): as the sequence (Q06187 whole entry C481S) above, with S481C counted along it

With `CN1CCN([C@@H]2CCCN(c3nnc(C(N)=O)c(Nc4ccc(C5CCN(CC6CCN(c7ccc8c(c7)C(=O)N(C7CCC(=O)NC7=O)C8=O)CC6)CC5)cc4)n3)C2)C1=O` (stereo partly drawn) [Compound 123, 5-((4-(1-((1-(2-(2,6-dioxopiperidin-3-yl)-1,3-dioxoisoindolin-5-yl)piperidin-4-yl)methyl)piperidin-4-yl)phenyl)amino)-3-((R)-3-(3-methyl-2-oxoimidazolin-1-yl)piperidin-1-yl)-1,2,4-triazin-6-carboxamide], the results for the DC50 in [1] and in data set [2] were under 1 nM and under 10 nM, respectively. Besides, the IC50 in data set [3] is 0.2 nM; in data set [4], 2.11 nM. In [5], this molecule displayed a DNAUC of 1920 ng/ml*h/mpk. For the same molecule, the Cmax in [5] (class symbols) was over 6000 ng/mL. In data set [6], the “TGI (%)” value is on record as 95.66%.

Turning to `CN1CCN([C@@H]2CCCN(c3nnc(C(N)=O)c(Nc4ccc(N5CCN(C[C@@H]6CCN(c7ccc8c(c7)C(=O)N(C7CCC(=O)NC7=O)C8=O)C6)CC5)c(F)c4)n3)C2)C1=O` (stereo partly drawn) [Compound 131, 5-((4-(4-(((3S)-1-(2-(2,6-dioxopiperidin-3-yl)-1,3-dioxoisoindolin-5-yl)pyrrolidin-3-yl)methyl)piperazin-1-yl)-3-fluorophenyl)amino)-3-((R)-3-(3-methyl-2-oxoimidazolin-1-yl)piperidin-1-yl)-1,2,4-triazin-6-carboxamide], the DC50 in [1] is under 1 nM; in data set [2], under 10 nM. The figures for the IC50 in data set [3] and in data set [4] were 0.9 nM and 3.61 nM, respectively. Moreover, in [7], the half-life at 0.97 µg/mL is over 30 min. The molecule also yielded a DNAUC in data set [5] of 3614 ng/ml*h/mpk. The molecule further gave a maximum concentration (Cmax) in [5] of 6190 ng/mL. In data set [6], the “TGI (%)” value is recorded as 96.67%. Also, the values for the Inhibition ratio % in [8] (concentration 0.16 nM) and in data set [8] (concentration 0.80 nM) were 60.8% and 100%, respectively.

In turn, `CN1CCN([C@@H]2CCCN(c3nnc(C(N)=O)c(Nc4ccc(N5CCN(C[C@H]6CCN(c7ccc8c(c7)C(=O)N(C7CCC(=O)NC7=O)C8=O)C6)CC5)c(F)c4)n3)C2)C1=O` (stereo partly drawn) [Compound 132, 5-((4-(4-(((3R)-1-(2-(2,6-dioxopiperidin-3-yl)-1,3-dioxoisoindolin-5-yl)pyrrolidin-3-yl)methyl)piperazin-1-yl)-3-fluorophenyl)amino)-3-((R)-3-(3-methyl-2-oxoimidazolin-1-yl)piperidin-1-yl)-1,2,4-triazin-6-carboxamide] gave a DC50 in [1] of under 1 nM. Moreover, the IC50 in data set [3] was under 1 nM; in data set [4] it was 2.55 nM. Also, the half-life at 0.97 µg/mL in data set [7] is over 30 min. The molecule further returned a DNAUC in data set [5] of 2430 ng/ml*h/mpk. Further, the peak level in data set [5] (Cmax) was 7800 ng/mL. This molecule also yielded an AUC in data set [9] of 1690 ng·h/mL.

Take `Cc1cc(N2CCC(CN3CCN(c4ccc(Nc5nc(N6CCC[C@@H](N7CCN(C)C7=O)C6)nnc5C(N)=O)cc4F)CC3)CC2)ccc1N1CCC(=O)NC1=O` [Compound 257, (R)-5-((4-(4-((1-(4-(2,4-dioxotetrahydropyrimidin-1(2H)-yl)-3-methylphenyl)piperidin-4-yl)methyl)piperazin-1-yl)-3-fluorophenyl)amino)-3-(3-(3-methyl-2-oxoimidazolidin-1-yl)piperidin-1-yl)-1,2,4-triazin-6-carboxamide]: the DC50 in data set [1] is under 1 nM; in [2], under 10 nM. Also, the IC50 in [3] was 0.12 nM; in data set [4] it was under 0.26 nM. Besides, in [7], the half-life at 0.97 µg/mL is over 30 min. In data set [9], the AUC was 6590 ng·h/mL. In [6], the “TGI (%)” value is 98.74%. For the same molecule, the Inhibition ratio % in data set [8] (concentration 0.16 nM) and in data set [8] (concentration 0.80 nM) was 100% each time.

In data set [9], `NC(=O)c1ncc(N2CCCCC2)nc1Nc1ccc(C2CCN(C[C@H]3CCN(c4ccc5c(c4)C(=O)N(C4CCC(=O)NC4=O)C5=O)C3)CC2)cc1` (some centres unmarked) [Compound c, reference compound] returned an AUC of 246 ng·h/mL. For the same molecule, in [6], the “TGI (%)” value came to 67.59%. In addition, the values for the Inhibition ratio % in data set [8] (concentration 0.16 nM) and in data set [8] (concentration 0.80 nM) were 10.2% and 16.3%, respectively.

Turning to `C=CC(=O)N1CCC[C@@H](n2nc(-c3ccc(Oc4ccccc4)cc3)c3c(N)ncnc32)C1` [Ibrutinib], the “TGI (%)” value in [6] worked out at 50.72%.

Values taken from US20240360146A1, “BRUTON'S TYROSINE KINASE AND MUTANT DEGRADER, COMPOSITION AND APPLICATION THEREOF” (HANGZHOU HEALZEN THERAPEUTICS CO., LTD., priority 2021, published 2024).
